17 molecules from patent US8865623B2, “Herbicidally active cyclic diones and derivatives thereof, processes for their preparation, compositions, and method of controlling weeds” (Syngenta Limited, priority 2009, dated 2014) can be followed below.

Format in all cases: in vivo
Experiment [1] has as its system Alopecurus myosuroides (ALOMY). The experiment can be described thus: Pre-emergence herbicidal activity, glasshouse pot test. The following applies: Alopecurus myosuroides, 312 h; Rate 250 g/ha; pre-emergence spray; evaluated after 13 days; read-out: Pre-emergence activity ALOMY (100=total damage to plant; 0=no damage to plant). The essentials: (§1)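 Herbicide damage scored 0–100 at 13 d. Pre-emergence: spray 1 d after sowing; post-emergence: spray after 8 d growth. Formulation acetone/water 50:50, 0.5% Tween 20, aqueous spray.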

For experiment [2], the system named is Avena fatua (AVEFA). The description is as above. The following applies: Avena fatua, 312 h; Rate 250 g/ha; pre-emergence spray; evaluated after 13 days; read-out: Pre-emergence activity AVEFA (100=total damage to plant; 0=no damage to plant). The essentials: as §1
The test system of experiment [3] is Echinochloa crus-galli (ECHCG). The description is as above. As to conditions: Echinochloa crus-galli, 312 h; Rate 250 g/ha; pre-emergence spray; evaluated after 13 days; read-out: Pre-emergence activity ECHCG (100=total damage to plant; 0=no damage to plant). The method in brief: as §1
For experiment [4], the system named is Lolium perenne (LOLPE). The experiment is described as above. The following applies: Lolium perenne, 312 h; Rate 250 g/ha; pre-emergence spray; evaluated after 13 days; read-out: Pre-emergence activity LOLPE (100=total damage to plant; 0=no damage to plant). The essentials: as §1
The test system of experiment [5] is Alopecurus myosuroides (ALOMY). The experiment can be described thus: Post-emergence herbicidal activity, glasshouse pot test. The following applies: Alopecurus myosuroides, 312 h, rate 250 g/ha, evaluated after 13 days, glasshouse, read-out: Post-emergence activity ALOMY (100=total damage to plant; 0=no damage to plant). The essentials: as §1
For experiment [6], the system named is Avena fatua (AVEFA). The description is as above. As to conditions: Avena fatua, 312 h, rate 250 g/ha, evaluated after 13 days, glasshouse, read-out: Post-emergence activity AVEFA (100=total damage to plant; 0=no damage to plant). The method in brief: as §1
Experiment [7] relates to Echinochloa crus-galli (ECHCG). The experiment is described as above. The following applies: Echinochloa crus-galli, 312 h, rate 250 g/ha, evaluated after 13 days, glasshouse, read-out: Post-emergence activity ECHCG (100=total damage to plant; 0=no damage to plant). The essentials: as §1
The subject of experiment [8] is Lolium perenne (LOLPE). The description is as above. The following applies: Lolium perenne, 312 h, rate 250 g/ha, evaluated after 13 days, glasshouse, read-out: Post-emergence activity LOLPE (100=total damage to plant; 0=no damage to plant). The method in brief:
as §1

As to `CCc1ccc(Oc2ccc(Cl)cc2F)cc1C1=C(O)CC2(CCOCC2)CC1=O` [Example A-65], the pest or weed control at 250 g/ha in experiment [1] came out at 70%; with Avena fatua (AVEFA) [2], 90%; in experiment [3], 100%; in the experiment on Lolium perenne (LOLPE) [4] it was 80%; in experiment [5], 90%; with Avena fatua (AVEFA) [6], 90%. Also, the values for the pest or weed control at 250 g/ha (in experiment [7]; in the experiment on Lolium perenne (LOLPE) [8]) were 100% and 80%, respectively.

Consider `CCc1ccc(Oc2ccc(Cl)c(F)c2)cc1C1=C(O)CC2(CCOCC2)CC1=O` [Example A-66], for which the pest or weed control at 250 g/ha is 100% in experiment [1]; 90% in the experiment with Avena fatua (AVEFA) [2]; 100% in experiment [3]; 80% in the experiment on Lolium perenne (LOLPE) [4]; 100% in experiment [5]; 100% in the experiment on Avena fatua (AVEFA) [6]. The pest or weed control at 250 g/ha was found to be 100% in experiment [7] and 80% in the experiment on Lolium perenne (LOLPE) [8].

Turning to `CCc1ccc(Oc2ccc([N+](=O)[O-])c(Cl)c2)cc1C1=C(O)C(C)(C)OC(C)(C)C1=O` [Example A-67], the pest or weed control at 250 g/ha in experiment [1] was determined as 90%; in the experiment with Avena fatua (AVEFA) [2], 90%; in experiment [3], 100%; with Lolium perenne (LOLPE) [4], 100%; in experiment [5], 100%; in the experiment on Avena fatua (AVEFA) [6], 80%. Also, the pest or weed control at 250 g/ha in experiment [7] is 100%; with Lolium perenne (LOLPE) [8], 90%.

Regarding `CCc1ccc(Oc2ccc(Cl)c(F)c2)cc1C1=C(O)CCCC1=O` [Example A-68], the pest or weed control at 250 g/ha in experiment [1] was 30%; with Avena fatua (AVEFA) [2], 30%; in experiment [3] it was 100%; with Lolium perenne (LOLPE) [4] it was 70%; in experiment [5], 60%; with Avena fatua (AVEFA) [6], 40%. The values for the pest or weed control at 250 g/ha (in experiment [7]; with Lolium perenne (LOLPE) [8]) were 100% and 60%, respectively.

For `CCc1ccc(Oc2ccc(F)cc2F)cc1C1=C(O)CCCC1=O` [Example A-69], the pest or weed control at 250 g/ha was 20% in experiment [1]; 0% with Avena fatua (AVEFA) [2]; 80% in experiment [3]; 30% in the experiment with Lolium perenne (LOLPE) [4]; 10% in experiment [5]; 0% with Avena fatua (AVEFA) [6]. Further, the figures for the pest or weed control at 250 g/ha (in experiment [7]; in the experiment on Lolium perenne (LOLPE) [8]) were 60% and 20%, respectively.

On to `CCc1ccc(Oc2ccc(F)cc2Cl)cc1C1=C(O)CC(C)(C)CC1=O` [Example A-70], for which the pest or weed control at 250 g/ha was 60% in experiment [1]; 10% with Avena fatua (AVEFA) [2]; 100% in experiment [3]; 50% with Lolium perenne (LOLPE) [4]; 30% in experiment [5]; 10% in the experiment with Avena fatua (AVEFA) [6]. Moreover, the results for the pest or weed control at 250 g/ha (in experiment [7]; in the experiment on Lolium perenne (LOLPE) [8]) were 70% and 10%, respectively.

`CCc1ccc(Oc2ccc(Cl)cc2Cl)cc1C1=C(O)CC(C)(C)CC1=O` [Example A-71]: the pest or weed control at 250 g/ha turned out to be 30% in experiment [1]; 0% with Avena fatua (AVEFA) [2]; 90% in experiment [3]; 40% in the experiment on Lolium perenne (LOLPE) [4]; 60% in experiment [5]; 30% with Avena fatua (AVEFA) [6]. In addition, the pest or weed control at 250 g/ha in experiment [7] stood at 90%; in the experiment with Lolium perenne (LOLPE) [8], 60%.

With `CCc1ccc(Oc2ccnc(Cl)c2)cc1C1=C(O)C(C)(C)OC(C)(C)C1=O` [Example A-72], the pest or weed control at 250 g/ha in experiment [1] was 60%; in the experiment with Avena fatua (AVEFA) [2] it was 30%; in experiment [3] it was 90%; with Lolium perenne (LOLPE) [4], 70%; in experiment [5], 60%; in the experiment on Avena fatua (AVEFA) [6] it was 50%. Besides, the pest or weed control at 250 g/ha in experiment [7] was 90%; in the experiment with Lolium perenne (LOLPE) [8] it was 40%.

Regarding `CCc1ccc(Oc2ccc(C#N)cc2Cl)cc1C1=C(O)C(C)(C)OC(C)(C)C1=O` [Example A-73], the pest or weed control at 250 g/ha in experiment [1] was 90%; with Avena fatua (AVEFA) [2], 80%; in experiment [3], 100%; in the experiment on Lolium perenne (LOLPE) [4] it was 80%; in experiment [5] it was 90%; with Avena fatua (AVEFA) [6] it was 40%. Also, the pest or weed control at 250 g/ha in experiment [7] is 100%; in the experiment on Lolium perenne (LOLPE) [8], 70%.

On to `CCc1ccc(Oc2ccc(C#N)cc2C(F)(F)F)cc1C1=C(O)C(C)(C)OC(C)(C)C1=O` [Example A-74], for which the pest or weed control at 250 g/ha in experiment [1] stood at 60%; in the experiment with Avena fatua (AVEFA) [2] it was 90%; in experiment [3], 100%; with Lolium perenne (LOLPE) [4], 100%; in experiment [5], 90%; in the experiment with Avena fatua (AVEFA) [6] it was 80%. In addition, the pest or weed control at 250 g/ha was found to be 100% in experiment [7] and 80% in the experiment on Lolium perenne (LOLPE) [8].

For `CCc1ccc(Oc2ccc(C#N)c(Cl)c2)cc1C1=C(O)C(C)(C)OC(C)(C)C1=O` [Example A-75], the pest or weed control at 250 g/ha in experiment [1] was 100%; with Avena fatua (AVEFA) [2], 80%; in experiment [3], 100%; with Lolium perenne (LOLPE) [4], 100%; in experiment [5] it was 100%; in the experiment with Avena fatua (AVEFA) [6], 90%. Also, the pest or weed control at 250 g/ha (in experiment [7]; with Lolium perenne (LOLPE) [8]) was 100% in each case.

`CCc1ccc(Oc2ccc(C#N)c(C(F)(F)F)c2)cc1C1=C(O)C(C)(C)OC(C)(C)C1=O` [Example A-76]: the pest or weed control at 250 g/ha in experiment [1] is 70%; with Avena fatua (AVEFA) [2], 80%; in experiment [3], 100%; with Lolium perenne (LOLPE) [4], 60%; in experiment [5], 80%; with Avena fatua (AVEFA) [6], 70%. Also, the results for the pest or weed control at 250 g/ha (in experiment [7]; with Lolium perenne (LOLPE) [8]) were 100% and 70%, respectively.

In the case of `CCc1ccc(Oc2ccc(C#N)c(C#N)c2)cc1C1=C(O)C(C)(C)OC(C)(C)C1=O` [Example A-77], the pest or weed control at 250 g/ha in experiment [1] is 40%; with Avena fatua (AVEFA) [2], 20%; in experiment [3] it was 70%; with Lolium perenne (LOLPE) [4], 30%; in experiment [5], 60%; with Avena fatua (AVEFA) [6], 30%. Further, the pest or weed control at 250 g/ha in experiment [7] worked out at 70%; in the experiment with Lolium perenne (LOLPE) [8], 30%.

Turning to `CCc1ccc(Oc2ccc(C(F)(F)F)cc2Br)cc1C1=C(O)C(C)(C)OC(C)(C)C1=O` [Example A-78], the pest or weed control at 250 g/ha came out at 100% in experiment [1]; 80% with Avena fatua (AVEFA) [2]; 100% in experiment [3]; 100% in the experiment with Lolium perenne (LOLPE) [4]; 100% in experiment [5]; 90% in the experiment with Avena fatua (AVEFA) [6]. The pest or weed control at 250 g/ha (in experiment [7]; with Lolium perenne (LOLPE) [8]) was 90% throughout.

Take `CCc1ccc(Oc2ccc(C#N)cc2)cc1C1=C(O)C(C)(C)OC(C)(C)C1=O` [Example A-79]: the pest or weed control at 250 g/ha in experiment [1] stood at 80%; with Avena fatua (AVEFA) [2], 80%; in experiment [3], 100%; with Lolium perenne (LOLPE) [4], 90%; in experiment [5] it was 100%; with Avena fatua (AVEFA) [6], 60%. The pest or weed control at 250 g/ha in experiment [7] came out at 100%; in the experiment on Lolium perenne (LOLPE) [8], 80%.

`CCc1ccc(Oc2nc(C)c(Cl)c(N)n2)cc1C1=C(O)C(C)(C)OC(C)(C)C1=O` [Example A-81]: the pest or weed control at 250 g/ha came out at 30% in experiment [1]; 10% with Avena fatua (AVEFA) [2]; 90% in experiment [3]; 40% in the experiment on Lolium perenne (LOLPE) [4]; 50% in experiment [5]; 50% in the experiment on Avena fatua (AVEFA) [6]. Further, the pest or weed control at 250 g/ha turned out to be 70% in experiment [7] and 30% in the experiment with Lolium perenne (LOLPE) [8].

`CCc1ccc(Oc2cnc3cc(Cl)ccc3n2)cc1C1=C(O)CC(C)(C)CC1=O` [Example A-82]: the pest or weed control at 250 g/ha in experiment [1] was found to be 70%; in the experiment on Avena fatua (AVEFA) [2] it was 90%; in experiment [3], 100%; in the experiment on Lolium perenne (LOLPE) [4], 100%; in experiment [5], 100%; in the experiment with Avena fatua (AVEFA) [6], 100%. Further, the pest or weed control at 250 g/ha stood at 100% in experiment [7] and 90% in the experiment on Lolium perenne (LOLPE) [8].
